Measurements reported in patent publication US4439606A, “Antiatherosclerotic 1-piperazinecarbonyl compounds” (American Cyanamid Company, priority 1982, dated 1984).

What was measured:
[1] = test system: serum cholesterol and triglyceride; experiment: Lowering of serum lipid levels, oral administration in diet to rats; assay type: in vivo, male rats COBS, CD, SD strain; settings: 0.1% of test compound by weight in diet, 5 days, vs control rats
Description: The compounds were also tested for their ability to lower lipid levels in mammals. The compounds were administered orally admixed with diet to groups of four male rats COBS, CD, SD strain from Charles River Breeding Laboratories, Inc., Wilmington, Mass. A control group of eight rats was maintained on the diet alone; test groups were maintained on the diet plus 0.1% of test compound by weight. After 5 days treatment, serum cholesterol and triglyceride concentrations were determined by direct enzymatic procedures using a Centrifichem® System 400 autoanalyzer (Union Carbide Co.). Cholesterol concentrations were determined by the combined cholesterol esterasecholesterol oxidase procedure of Roeschlau, et al., Zeit. Klin. Chem. Klin. Biochem., 12, 226 (1974). Triglycerides were determined by the combined method of lipase catalyzed hydrolysis of triglycerides to glycerol and free fatty acids [Bucolo, G. and David, H., Clin. Chem., 19, 476 (1973) and Wahlefeld, A. W., in "Methods of Enzymatic Analysis," Vol, 4, Bergmeyer, H. D., Editor, Academic Press, New York, N.Y. (1974), pp. 1831-1835] and the enzymatic oxidation of the glycerol which leads to the production of colored formazan [Stavropoulos, W. S. and Crouch, R. D., Clin. Chem., 20, No. 7, 857 (1974)]. […] The compounds are considered active if they produce a statistically significant lowering of either sterol or triglycerides.

[2] = target: T1, fatty acyl CoA:-cholesterol acyl transferase (ACAT) (Rattus norvegicus, UniProt O70536); experiment: Inhibition of enzymatic esterification of cholesterol (ACAT inhibition), rat adrenal supernatant; assay type: biochemical; settings: final concentration 5.2 μg./ml., 37° C., 30 minutes
T1 construct: The supernatant, containing the microsomal fraction, served as the source of the cholesterol-esterifying enzyme; from tissue; host or cells: rat adrenals, 1000 x g supernatant containing the microsomal fraction
T1 sequence (O70536 1-545): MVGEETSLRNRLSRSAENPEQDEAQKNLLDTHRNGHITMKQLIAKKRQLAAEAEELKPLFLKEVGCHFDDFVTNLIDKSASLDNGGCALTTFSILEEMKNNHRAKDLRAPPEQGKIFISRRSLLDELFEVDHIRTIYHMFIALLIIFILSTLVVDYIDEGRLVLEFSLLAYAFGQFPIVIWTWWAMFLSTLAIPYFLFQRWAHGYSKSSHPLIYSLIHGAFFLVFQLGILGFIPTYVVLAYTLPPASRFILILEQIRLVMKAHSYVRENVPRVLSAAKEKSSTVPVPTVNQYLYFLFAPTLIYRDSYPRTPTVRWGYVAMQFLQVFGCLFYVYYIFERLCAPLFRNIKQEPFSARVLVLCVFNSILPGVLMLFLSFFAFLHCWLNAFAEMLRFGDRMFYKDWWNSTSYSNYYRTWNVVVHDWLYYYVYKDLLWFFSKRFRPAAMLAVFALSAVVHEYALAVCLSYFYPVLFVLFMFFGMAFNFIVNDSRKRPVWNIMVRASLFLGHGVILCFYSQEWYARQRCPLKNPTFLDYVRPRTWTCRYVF
Description: The compounds of the present invention were tested for their ability to inhibit the enzymatic esterification of cholesterol according to the procedure of Hashimoto, et al., Life Sci., 12(Part II), 1-12 (1973).
Rat adrenals were homogenized in 0.2 M monobasic potassium phosphate buffer, pH 7.4, and centrifuged at 1000 times gravity for 15 minutes at 5° C. The supernatant, containing the microsomal fraction, served as the source of the cholesterol-esterifying enzyme, fatty acyl CoA:-cholesterol acyl transferase (ACAT). A mixture comprising 50 parts of adrenal supernatant, 10 parts of bovine serum albumin (50 mg./ml.), 3 parts of test compound (final concentration 5.2 μg./ml.) and 500 parts of buffer were preincubated at 37° C. for 10 minutes, following which 20 parts of oleoyl […] were added and the final mixture was incubated at 37° C. for 30 minutes. A control mixture, omitting the test compound, was prepared and treated in the same manner. The lipids from the incubation mixture were extracted into an organic solvent and separated by thin-layer chromatography. The cholesterol ester fraction was counted in a scintillation counter. A statistically significant inhibition of the ACAT enzyme is the criterion for activity.

aortic sterol content = experiment: Decrease of aortic sterol content without effecting serum sterol in cholesterol-fed cockerels; assay type: in vivo, Day-old Cockerels; set-up: key: Active: Compounds which statistically decrease the aortic sterol content without having an effect on serum sterol are considered to be active; settings: 525 mg. test compound and 20 g. cholesterol per kg. of diet, 14 days
Description: The compounds were further tested for their ability to decrease aortic sterol content without effecting serum sterol.
Day-old Cockerels were placed on diets consisting of pullet starter mash supplemented with either 20 g. cholesterol (control group) or 20 g. cholesterol and 525 mg. test compound (drug-treated group) per kg. of diet.
For the control diet, 20 g. of cholesterol was dissolved in 200 ml. of chloroform, mixed into one kg. of pullet starter mash and then the choloroform was removed by evaporation.
For the drug-treatment group, 525 mg. of the test compound was dissolved in 100 ml. of chloroform, mixed into a diet prepared as described above and then the chloroform was evaporated.
The cockerels were housed three per cage and given water and their respective diet ad libitum for 14 days. Blood was collected by cardiac puncture and the serum was saponified [Trinder, P., Analyst, 77, 321 (1952)] and extracted and the cholesterol content determinted [Zlatkis, A., et al., J. Lab Clin Med., 41 486 (1953)]. The aortae were removed, cleaned of adventitial tissue and the sterol content determined according to the above procedures. Compounds which statistically decrease the aortic sterol content without having an effect on serum sterol are considered to be active.

inhibition at 5.2 µg/mL [2] [%]	SMILES	% Lowering of Serum Triglycerides [1] [%]	further results
32.2	O=C(Cc1ccc(Cl)cc1Cl)N1CCN(c2cnccn2)CC1 [1-(2,4-Dichlorophenylacetyl)-4-(2-pyrazinyl)piperazine]	44	–
–	Cc1ccccc1CC(=O)N1CCN(c2cnccn2)CC1 [1-(2-Methylphenylacetyl)-4-(2-pyrazinyl)piperazine]	55	–
30.5	CC(Oc1ccccc1)C(=O)N1CCN(c2cnccn2)CC1 (stereo not shown) [1-(2-Phenoxypropionyl)-4-(2-pyrazinyl)piperazine]	62	–
–	O=C(c1cccnc1)N1CCN(c2cnccn2)CC1 [1-(2-Pyrazinyl)-4-(3-pyridylcarbonyl)piperazine]	30	–
–	Cc1cccc(CC(=O)N2CCN(c3cnccn3)CC2)c1 [1-(2-Pyrazinyl)-4-(m-tolylacetyl)piperazine]	40	–
–	Cc1ccc(CC(=O)N2CCN(c3cnccn3)CC2)cc1 [1-(2-Pyrazinyl)-4-(p-tolylacetyl)piperazine]	49	Result (decrease of aortic sterol content without effect on serum sterol) (aortic sterol content): Active
–	O=C(c1ccccc1C(F)(F)F)N1CCN(c2cnccn2)CC1 [1-(2-Pyrazinyl)-4-(α,α,α-trifluoro-o-toluoyl)piperazine]	–	Result (decrease of aortic sterol content without effect on serum sterol) (aortic sterol content): Active
32.6	Cc1ccccc1CC(=O)N1CCN(c2nccs2)CC1 [1-(2-Thiazolyl)-4-o-tolylacetylpiperazine]	–	–
38.1	COc1cncc(N2CCN(C(=O)Cc3ccccc3)CC2)n1 [1-(6-Methoxy-2-pyrazinyl)-4-phenylacetylpiperazine]	56	–
–	O=C(Cc1cccc(Cl)c1)N1CCN(c2cnccn2)CC1 [1-(m-Chlorophenylacetyl)-4-(2-pyrazinyl)piperazine]	46	–
–	Cc1ccccc1CC(=O)N1CCN(c2cnccn2)CC1 [1-(o-Methylphenylacetyl)-4-(2-pyrazinyl)piperazine]	–	Result (decrease of aortic sterol content without effect on serum sterol) (aortic sterol content): Active
88.1	CC1CN(C(=O)Cc2ccccc2)CCN1c1ccc(Cl)cc1 (stereo not shown) [1-(p-Chlorophenyl)-2-methyl-4-phenylacetylpiperazine]	61	–
73.3	O=C(Cc1ccccc1)N1CCN(c2ccc(Cl)cc2)CC1 [1-(p-Chlorophenyl)-4-phenylacetylpiperazine]	–	–
–	O=C(Cc1ccc(Cl)cc1)N1CCN(c2cnccn2)CC1 [1-(p-Chlorophenylacetyl)-4-(2-pyrazinyl)piperazine]	51	–
39.7	CC(C)(C)c1ccc(C(=O)N2CCN(c3cnccn3)CC2)cc1 [1-(p-tert.-Butylbenzoyl)-4-(2-pyrazinyl)piperazine]	–	–
–	O=C(C1CC1)N1CCN(c2cnccn2)CC1 [1-Cyclopropylcarbonyl-4-(2-pyrazinyl)piperazine]	37	–

inhibition at 5.2 µg/mL [2] [%]	SMILES	% Lowering of Serum Triglycerides [1] [%]	further results
–	O=C(N1CCN(c2cnccn2)CC1)C(F)(F)C(F)(F)C(F)(F)F [1-Heptafluorobutyroyl-4-(2-pyrazinyl)piperazine]	51	–
31.2	O=C(c1c(F)c(F)c(F)c(F)c1F)N1CCN(c2cnccn2)CC1 [1-Pentafluorobenzoyl-4-(2-pyrazinyl)piperazine]	–	–
40.1	O=C(Cc1ccccc1)N1CCN(c2cnc3ccccc3n2)CC1 [1-Phenylacetyl-4-(2-quinoxalinyl)piperazine]	–	–
–	O=C(Cc1ccccc1)N1CCN(Cc2cccnc2)CC1 [1-Phenylacetyl-4-(3-pyridylmethyl)piperazine]	34	–
54.1	CC(C)(Oc1ccc(Cl)cc1)C(=O)N1CCN(c2cnccn2)CC1 [1-[2-(p-Chlorophenoxy)-2-methylpropionyl]-4-(2-pyrazinyl)piperazine]	42	–
47.4	O=C(CCCCC(=O)N1CCN(c2cnccn2)CC1)c1ccc(Cl)cc1 [1-[5-(p-Chlorobenzoyl)valeryl]-4-(2-pyrazinyl)piperazine]	45	–
68.9	O=C(CCCCCc1ccc(Cl)cc1)N1CCN(c2cnccn2)CC1 [1-[6-(p-Chlorophenyl)hexanoyl]-4-(2-pyrazinyl)piperazine]	30	–
–	O=C(c1ccccc1)N1CCN(c2cnccn2)CC1 [1-benzoyl-4-(2-pyrazinyl)piperazine, 1-Benzoyl-4-(2-pyrazinyl)piperazine]	30	–
33.6	CCCCCCCC(=O)N1CCN(c2cnccn2)CC1 [1-octanoyl-4-(2-pyrazinyl)piperazine, 1-Octanoyl-4-(2-pyrazinyl)piperazine]	–	–
–	O=C(Nc1c(Cl)cccc1Cl)N1CCN(c2cnccn2)CC1 [2',6'-Dichloro-4-(2-pyrazinyl)-1-piperazinecarboxanilide]	–	Result (decrease of aortic sterol content without effect on serum sterol) (aortic sterol content): Active
–	O=C(Nc1ccc(Cl)cc1)N1CCN(c2cnccn2)CC1 [4'-Chloro-4-(2-pyrazinyl)-1-piperazinecarboxanilide]	33	–
42.2	CCOC(=O)c1ccc(NC(=O)N2CCN(c3cnccn3)CC2)cc1 [Ethyl-p-[4-(2-pyrazinyl)-1-piperazinecarboxamido]benzoate]	–	–
–	CCNC(=O)N1CCN(c2cnccn2)CC1 [N--Ethyl-4-(2-pyrazinyl)-1-piperazinecarboxamide]	43	–
–	CNC(=O)N1CCN(c2cnccn2)CC1 [N--Methyl-4-(2-pyrazinyl)-1-piperazinecarboxamide]	38	–
35.4	CC(C)(C)NC(=O)N1CCN(c2cnccn2)CC1 [N--tert.-Butyl-4-(2-pyrazinyl)-1-piperazinecarboxamide]	–	–
30.6	O=C(O)c1ccc(NC(=O)N2CCN(c3cnccn3)CC2)cc1 [p-[4-(2-Pyrazinyl)-1-piperazinecarboxamide]-benzoic acid]	–	–

SMILES	inhibition at 5.2 µg/mL [2] [%]	% Lowering of Serum Triglycerides [1] [%]	further results
O=C(N1CCN(c2cnccn2)CC1)C(F)(F)C(F)(F)C(F)(F)C(F)(F)C(F)(F)C(F)(F)C(F)(F)F [1-(Pentadecafluorooctanoyl)-4-(2-pyrazinyl)piperazine]	39	74	% Lowering of Serum Sterol [1]: 47%
O=C(Cc1ccccc1)N1CCN(c2ccc3ccccc3n2)CC1 [1-phenylacetyl-4-(2-quinolyl)piperazine, 1-Phenylacetyl-4-(2-quinolyl)piperazine]	89.7	53	% Lowering of Serum Sterol [1]: 69%
